These results are taken from ChEMBL document CHEMBL5584338, “Design, Synthesis, and Biological Evaluation of 5-Amino-4-fluoro-1H-benzo[d]imidazole-6-carboxamide Derivatives as Novel and Potential MEK/RAF Complex Inhibitors Based on the "Clamp" Strategy” (J Med Chem, 2024).

Dual specificity mitogen-activated protein kinase kinase 1, sequence (Q02750 whole entry): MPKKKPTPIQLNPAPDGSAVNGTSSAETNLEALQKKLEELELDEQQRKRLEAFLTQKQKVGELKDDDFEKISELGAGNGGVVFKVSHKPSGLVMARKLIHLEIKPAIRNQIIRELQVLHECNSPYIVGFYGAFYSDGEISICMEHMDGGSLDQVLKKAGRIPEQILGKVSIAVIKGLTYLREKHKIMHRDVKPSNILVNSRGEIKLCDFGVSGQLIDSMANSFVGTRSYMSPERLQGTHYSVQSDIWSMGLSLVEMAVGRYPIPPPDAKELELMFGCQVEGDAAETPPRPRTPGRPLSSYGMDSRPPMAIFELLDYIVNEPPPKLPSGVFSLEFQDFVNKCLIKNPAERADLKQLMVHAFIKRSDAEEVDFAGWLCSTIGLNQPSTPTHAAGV

The first assay concerns MIA PaCa-2. Nature of the assay: Antiproliferative activity against human MIA PaCa-2 cells harboring KRAS G12C mutant at 0.1 uM incubated for 72 hrs by CCK8 assay relative to control. The assay is classed as functional.
Details: not given
On to `CNS(=O)(=O)Nc1cc(F)cc(Cn2cnc3c(F)c(Nc4ccc(C5CC5)cc4F)c(C(=O)NOCCO)cc32)c1`, for which the inhibition at 0.1 µM is 65.8%.
In the case of `CNS(=O)(=O)Nc1ccc(F)c(Cn2cnc3c(F)c(Nc4ccc(C5CC5)cc4F)c(C(=O)NOCCO)cc32)c1`, the inhibition at 0.1 µM came out at 7.1%.
On the same count and under the same terms, with `CNS(=O)(=O)Nc1cccc(Cn2cnc3c(F)c(Nc4ccc(Br)cc4F)c(C(=O)NOCCO)cc32)c1F` the figure was 35.7%; with `CNS(=O)(=O)N1CCCC(Cn2cnc3c(F)c(Nc4ccc(C5CC5)cc4F)c(C(=O)NOCCO)cc32)C1` (centres undefined), 31.1%; with `O=C(NOCCO)c1cc2c(ncn2Cc2cccc(NC(=O)C3CCCC3)c2)c(F)c1Nc1ccc(C2CC2)cc1F`, -29.7%.
The same measure, in the same setting: as for `CNS(=O)(=O)Nc1cc(Cn2cnc3c(F)c(Nc4ccc(C5CC5)cc4F)c(C(=O)NOCCO)cc32)ccc1F`, the figure is 31.6%; as for `CCNS(=O)(=O)Nc1cccc(Cn2cnc3c(F)c(Nc4ccc(Br)cc4F)c(C(=O)NOCCO)cc32)c1Cl`, 21.9%.
The same measure, in the same setting: as for `CCNS(=O)(=O)Nc1cccc(Cn2cnc3c(F)c(F)c(C(=O)NOCCO)cc32)c1F`, the figure is 6.04%; as for `CCNS(=O)(=O)Nc1cccc(Cn2cnc3c(F)c(Nc4ccc(C5CCC5)cc4F)c(C(=O)NOCCO)cc32)c1F`, 29%.
As for `CCC(=O)Nc1cccc(Cn2cnc3c(F)c(Nc4ccc(C5CC5)cc4F)c(C(=O)NOCCO)cc32)c1`, the inhibition at 0.1 µM was 18%.
Still for that read-out and setting: as for `Cn1cnc2c(F)c(Nc3ccc(Br)cc3F)c(C(=O)NOCCO)cc21` [BINIMETINIB], the figure is 58.8%.
Same read-out and setting: with `CCNS(=O)(=O)Nc1cc(Cn2cnc3c(F)c(Nc4ccc(C5CC5)cc4F)c(C(=O)NOCCO)cc32)ccc1F` the figure was 34.5%; with `O=C(NOCCO)c1cc2c(ncn2Cc2cccc(NC(=O)C3CC3)c2)c(F)c1Nc1ccc(C2CC2)cc1F`, 45%.
On the same count and under the same terms, as for `O=C(NOCCO)c1cc2c(ncn2Cc2cccc(NC(=O)C3CCCCC3)c2)c(F)c1Nc1ccc(C2CC2)cc1F`, the figure is 11.5%.

In a further assay the test system is HCT-116. Nature of the assay: Antiproliferative activity against human HCT-116 cells harboring KRAS G13D mutant at 1 uM incubated for 72 hrs by CCK8 assay relative to control. Type of assay: functional.
Details: not given
As to `CNS(=O)(=O)Nc1cc(F)cc(Cn2cnc3c(F)c(Nc4ccc(C5CC5)cc4F)c(C(=O)NOCCO)cc32)c1`, the inhibition at 1 µM turned out to be 57.4%.
On the same count and under the same terms, with `CNS(=O)(=O)Nc1ccc(F)c(Cn2cnc3c(F)c(Nc4ccc(C5CC5)cc4F)c(C(=O)NOCCO)cc32)c1` the figure was 12%.
The same measure, in the same setting: as for `CNS(=O)(=O)Nc1cccc(Cn2cnc3c(F)c(Nc4ccc(Br)cc4F)c(C(=O)NOCCO)cc32)c1F`, the figure is 60.3%; as for `CNS(=O)(=O)N1CCCC(Cn2cnc3c(F)c(Nc4ccc(C5CC5)cc4F)c(C(=O)NOCCO)cc32)C1` (centres undefined), -9.58%.
The same measure, in the same setting: with `O=C(NOCCO)c1cc2c(ncn2Cc2cccc(NC(=O)C3CCCC3)c2)c(F)c1Nc1ccc(C2CC2)cc1F` the figure was 4.21%; with `CNS(=O)(=O)Nc1cc(Cn2cnc3c(F)c(Nc4ccc(C5CC5)cc4F)c(C(=O)NOCCO)cc32)ccc1F`, 35.2%.
`CCNS(=O)(=O)Nc1cccc(Cn2cnc3c(F)c(Nc4ccc(Br)cc4F)c(C(=O)NOCCO)cc32)c1Cl`: the inhibition at 1 µM was 39.8%.
Consider `CCNS(=O)(=O)Nc1cccc(Cn2cnc3c(F)c(F)c(C(=O)NOCCO)cc32)c1F`, for which the inhibition at 1 µM was determined as 10.8%.
As to `CCNS(=O)(=O)Nc1cccc(Cn2cnc3c(F)c(Nc4ccc(C5CCC5)cc4F)c(C(=O)NOCCO)cc32)c1F`, the inhibition at 1 µM came to 56.2%.
On the same count and under the same terms, with `CCC(=O)Nc1cccc(Cn2cnc3c(F)c(Nc4ccc(C5CC5)cc4F)c(C(=O)NOCCO)cc32)c1` the figure was 17.8%.
Still for that read-out and setting: with `Cn1cnc2c(F)c(Nc3ccc(Br)cc3F)c(C(=O)NOCCO)cc21` [BINIMETINIB] the figure was 41.4%.
Still for that read-out and setting: as for `CCNS(=O)(=O)Nc1cc(Cn2cnc3c(F)c(Nc4ccc(C5CC5)cc4F)c(C(=O)NOCCO)cc32)ccc1F`, the figure is 17.5%; as for `O=C(NOCCO)c1cc2c(ncn2Cc2cccc(NC(=O)C3CC3)c2)c(F)c1Nc1ccc(C2CC2)cc1F`, 19.3%.
Regarding `O=C(NOCCO)c1cc2c(ncn2Cc2cccc(NC(=O)C3CCCCC3)c2)c(F)c1Nc1ccc(C2CC2)cc1F`, the inhibition at 1 µM was 13.7%.

The subject of the next assay is MIA PaCa-2. The experiment in a line: Antiproliferative activity against human MIA PaCa-2 cells harboring KRAS G12C mutant incubated for 72 hrs by CCK8 assay. The assay is classed as functional, cell-based. The settings on record: MIA PaCa-2, 72 h.
With `CNS(=O)(=O)Nc1cc(F)cc(Cn2cnc3c(F)c(Nc4ccc(C5CC5)cc4F)c(C(=O)NOCCO)cc32)c1`, the IC50 stood at 47 nM.
On the same count and under the same terms, with `CNS(=O)(=O)Nc1cccc(Cn2cnc3c(F)c(Nc4ccc(Br)cc4F)c(C(=O)NOCCO)cc32)c1F` the figure was 225 nM.
Still for that read-out and setting: with `CNS(=O)(=O)Nc1cc(Cn2cnc3c(F)c(Nc4ccc(C5CC5)cc4F)c(C(=O)NOCCO)cc32)ccc1F` the figure was 611 nM; with `CCNS(=O)(=O)Nc1cccc(Cn2cnc3c(F)c(Nc4ccc(C5CCC5)cc4F)c(C(=O)NOCCO)cc32)c1F`, 942 nM.
The molecule `CCC(=O)Nc1cccc(Cn2cnc3c(F)c(Nc4ccc(C5CC5)cc4F)c(C(=O)NOCCO)cc32)c1` yielded a half-inhibitory concentration (IC50) of 985 nM.
Same read-out and setting: with `Cn1cnc2c(F)c(Nc3ccc(Br)cc3F)c(C(=O)NOCCO)cc21` [BINIMETINIB] the figure was 182 nM.
`O=C(NOCCO)c1cc2c(ncn2Cc2cccc(NC(=O)C3CC3)c2)c(F)c1Nc1ccc(C2CC2)cc1F` had an IC50 of 628 nM.

A further assay relates to HCT-116. Nature of the assay: Antiproliferative activity against human HCT-116 cells harboring KRAS G13D mutant incubated for 72 hrs by CCK8 assay. The assay is classed as functional, cell-based. The settings on record: HCT-116, 72 h.
Turning to `CNS(=O)(=O)Nc1cc(F)cc(Cn2cnc3c(F)c(Nc4ccc(C5CC5)cc4F)c(C(=O)NOCCO)cc32)c1`, the IC50 was 173 nM.
The same measure, in the same setting: with `CNS(=O)(=O)Nc1cccc(Cn2cnc3c(F)c(Nc4ccc(Br)cc4F)c(C(=O)NOCCO)cc32)c1F` the figure was 113 nM; with `Cn1cnc2c(F)c(Nc3ccc(Br)cc3F)c(C(=O)NOCCO)cc21` [BINIMETINIB], 2000 nM.

The next assay addresses Dual specificity mitogen-activated protein kinase kinase 1 (Homo sapiens, UniProt Q02750). Nature of the assay: Inhibition of MEK1 (unknown origin) assessed as remaining activity at 0.1 uM relative to control.
Details: not given
Consider `CNS(=O)(=O)Nc1cc(F)cc(Cn2cnc3c(F)c(Nc4ccc(C5CC5)cc4F)c(C(=O)NOCCO)cc32)c1`, for which the Activity is 53%.
The same measure, in the same setting: with `CNS(=O)(=O)Nc1ccc(F)c(Cn2cnc3c(F)c(Nc4ccc(C5CC5)cc4F)c(C(=O)NOCCO)cc32)c1` the figure was 79%.
The same measure, in the same setting: with `CNS(=O)(=O)Nc1cccc(Cn2cnc3c(F)c(Nc4ccc(Br)cc4F)c(C(=O)NOCCO)cc32)c1F` the figure was 16%; with `O=C(NOCCO)c1cc2c(ncn2Cc2cccc(NC(=O)C3CCCC3)c2)c(F)c1Nc1ccc(C2CC2)cc1F`, 91%.
The same measure, in the same setting: with `CNS(=O)(=O)Nc1cc(Cn2cnc3c(F)c(Nc4ccc(C5CC5)cc4F)c(C(=O)NOCCO)cc32)ccc1F` the figure was 85%.
For `CCNS(=O)(=O)Nc1cccc(Cn2cnc3c(F)c(Nc4ccc(C5CCC5)cc4F)c(C(=O)NOCCO)cc32)c1F`, the Activity is 84%.
On to `CCC(=O)Nc1cccc(Cn2cnc3c(F)c(Nc4ccc(C5CC5)cc4F)c(C(=O)NOCCO)cc32)c1`, for which the Activity was 89%.
Still for that read-out and setting: as for `O=C(NOCCO)c1cc2c(ncn2Cc2cccc(NC(=O)C3CCCCC3)c2)c(F)c1Nc1ccc(C2CC2)cc1F`, the figure is 88%.

In a further assay the target is Serine/threonine-protein kinase B-raf (Homo sapiens, UniProt P15056). The experiment in a line: Inhibition of BRAF (unknown origin) assessed as remaining activity at 0.1 uM relative to control.
Serine/threonine-protein kinase B-raf, sequence (P15056 whole entry): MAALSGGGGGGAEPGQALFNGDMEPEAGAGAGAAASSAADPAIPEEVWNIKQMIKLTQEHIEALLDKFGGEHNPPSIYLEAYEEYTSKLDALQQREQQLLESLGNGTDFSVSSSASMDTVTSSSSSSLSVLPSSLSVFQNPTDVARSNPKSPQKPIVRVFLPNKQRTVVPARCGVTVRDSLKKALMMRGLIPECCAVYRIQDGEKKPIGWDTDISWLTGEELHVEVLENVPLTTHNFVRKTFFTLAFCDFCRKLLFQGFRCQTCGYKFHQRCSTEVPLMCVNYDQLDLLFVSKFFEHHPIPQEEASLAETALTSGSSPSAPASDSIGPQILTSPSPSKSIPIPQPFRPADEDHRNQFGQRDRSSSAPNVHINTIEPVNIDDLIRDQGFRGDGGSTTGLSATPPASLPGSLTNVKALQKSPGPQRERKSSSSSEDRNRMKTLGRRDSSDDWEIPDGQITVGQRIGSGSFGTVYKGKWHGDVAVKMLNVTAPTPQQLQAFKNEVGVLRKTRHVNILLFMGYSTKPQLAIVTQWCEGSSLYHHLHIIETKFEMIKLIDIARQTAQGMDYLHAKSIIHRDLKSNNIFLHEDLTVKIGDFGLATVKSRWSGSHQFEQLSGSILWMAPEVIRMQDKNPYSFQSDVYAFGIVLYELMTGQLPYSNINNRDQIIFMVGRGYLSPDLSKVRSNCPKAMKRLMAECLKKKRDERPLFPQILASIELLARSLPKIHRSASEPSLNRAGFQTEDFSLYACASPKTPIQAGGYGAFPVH
Details: not given
On to `CNS(=O)(=O)Nc1cc(F)cc(Cn2cnc3c(F)c(Nc4ccc(C5CC5)cc4F)c(C(=O)NOCCO)cc32)c1`, for which the Activity was determined as 5%.
Still for that read-out and setting: as for `CNS(=O)(=O)Nc1ccc(F)c(Cn2cnc3c(F)c(Nc4ccc(C5CC5)cc4F)c(C(=O)NOCCO)cc32)c1`, the figure is 21%; as for `CNS(=O)(=O)Nc1cccc(Cn2cnc3c(F)c(Nc4ccc(Br)cc4F)c(C(=O)NOCCO)cc32)c1F`, 3%; as for `O=C(NOCCO)c1cc2c(ncn2Cc2cccc(NC(=O)C3CCCC3)c2)c(F)c1Nc1ccc(C2CC2)cc1F`, 71%.
As for `CNS(=O)(=O)Nc1cc(Cn2cnc3c(F)c(Nc4ccc(C5CC5)cc4F)c(C(=O)NOCCO)cc32)ccc1F`, the Activity was determined as 16%.
On the same count and under the same terms, as for `CCNS(=O)(=O)Nc1cccc(Cn2cnc3c(F)c(Nc4ccc(C5CCC5)cc4F)c(C(=O)NOCCO)cc32)c1F`, the figure is 4%; as for `CCC(=O)Nc1cccc(Cn2cnc3c(F)c(Nc4ccc(C5CC5)cc4F)c(C(=O)NOCCO)cc32)c1`, 75%.
The same measure, in the same setting: with `O=C(NOCCO)c1cc2c(ncn2Cc2cccc(NC(=O)C3CCCCC3)c2)c(F)c1Nc1ccc(C2CC2)cc1F` the figure was 35%.
